In the NIST ThermoML archive (doi:10.1021/je0202073):

What was measured:
[1] = Liquid; for mass density: 101.33 kPa, vibrating tube; for vapor or sublimation pressure: ebulliometry; for Normal boiling temperature: Ebulliometric method (Recirculating still)
[2] = refractive index (Na D-line) (dimensionless); conditions: 303.15 K, 101.33 kPa, Liquid

CC(C)(C)O [2-methylpropan-2-ol]
Conditions | mass density [kg/m3] | refractive index | vapor or sublimation pressure [kPa]
[1], 303.15 K | 775.37 | – | –
[1], 332.3 K | – | – | 37.4
[1], 333.03 K | – | – | 38.69
[1], 333.45 K | – | – | 39.34
[1], 334.6 K | – | – | 41.37
[1], 335.29 K | – | – | 42.93
[1], 335.87 K | – | – | 43.85
[1], 336.43 K | – | – | 45.01
[1], 337.17 K | – | – | 46.69
[1], 337.8 K | – | – | 48.06
[1], 338.37 K | – | – | 49.27
[1], 338.86 K | – | – | 50.27
[1], 339.5 K | – | – | 51.81
[1], 340.08 K | – | – | 53.17
[1], 340.59 K | – | – | 54.25
[1], 341.17 K | – | – | 55.83
[1], 341.63 K | – | – | 56.78
[1], 342.18 K | – | – | 58.37
[1], 342.68 K | – | – | 59.61
[1], 343.13 K | – | – | 60.61
[1], 343.7 K | – | – | 62.3
[1], 344.13 K | – | – | 63.27
[1], 344.68 K | – | – | 64.99
[1], 345.06 K | – | – | 65.81
[1], 345.49 K | – | – | 67.05
[1], 346.11 K | – | – | 69.05
[1], 346.51 K | – | – | 70.21
[1], 346.83 K | – | – | 71.11
[1], 347.28 K | – | – | 72.45
[1], 347.68 K | – | – | 73.43
[1], 348.2 K | – | – | 75.35
[1], 348.54 K | – | – | 76.17
[1], 348.9 K | – | – | 77.42
[1], 349.34 K | – | – | 78.76
[1], 349.74 K | – | – | 80.07
[1], 350.1 K | – | – | 81.3
[1], 350.53 K | – | – | 82.71
[1], 350.9 K | – | – | 83.96
[1], 351.33 K | – | – | 85.66
[1], 351.67 K | – | – | 86.64
[1], 352.05 K | – | – | 88.15
[1], 352.45 K | – | – | 89.39
[1], 352.8 K | – | – | 90.67
[1], 353.13 K | – | – | 92.07
[1], 353.5 K | – | – | 93.39
[1], 353.81 K | – | – | 94.63
[1], 354.18 K | – | – | 95.95
[1], 354.51 K | – | – | 97.04
[1], 354.85 K | – | – | 98.36
[1], 355.23 K | – | – | 100.07
[1], 355.5 K | – | – | 100.88
[1], 355.58 K | – | – | 101.32
[1], 355.83 K | – | – | 102.22
[1], 356.22 K | – | – | 103.92
[1], 356.52 K | – | – | 105.27
[1], 356.86 K | – | – | 106.62
[1], 357.15 K | – | – | 107.71
[1], 357.45 K | – | – | 109.12
[1], 357.77 K | – | – | 110.47
[1], 358.06 K | – | – | 111.51
[1], 358.35 K | – | – | 112.83
[1], 358.68 K | – | – | 114.36
[1], 358.96 K | – | – | 115.48
[1], 359.27 K | – | – | 117
[1], 359.84 K | – | – | 119.53
[1], 360.13 K | – | – | 120.87
[1], 360.46 K | – | – | 122.36
[1], 360.64 K | – | – | 123.08
[1], 360.97 K | – | – | 124.73
[1], 361.26 K | – | – | 126.15
[1], 361.47 K | – | – | 126.96
[1], 361.73 K | – | – | 128.2
[1], 362.02 K | – | – | 129.63
[1], 362.54 K | – | – | 132.15
[1], 362.75 K | – | – | 133.36
[1], 363.03 K | – | – | 134.71
[1], 363.08 K | – | – | 134.81
[1], 363.56 K | – | – | 137.4
[1], 363.82 K | – | – | 138.8
[1], 364.09 K | – | – | 140.03
[1], 364.33 K | – | – | 141.29
[1], 364.66 K | – | – | 142.96
[1], 365.09 K | – | – | 145.34
[1], 365.27 K | – | – | 146.36
[1], 365.62 K | – | – | 148.18
[1], 366.1 K | – | – | 150.66
[1], 366.51 K | – | – | 153.08
[1], 366.81 K | – | – | 154.69
[1], 367.08 K | – | – | 156.16
[1], 367.49 K | – | – | 158.58
[1], 367.83 K | – | – | 160.39
[1], 368.23 K | – | – | 162.82
[2], Standard Abbe refractometry | – | 1.382 | –

CCOC(C)=O [ethyl acetate]
Conditions | mass density [kg/m3] | refractive index
[1], 298.15 K | 894.44 | –
[2], Abbe refractometer | – | 1.3675

Conditions | Normal boiling temperature [°C]
[1] | 77.10

CCCC(=O)OCC [ethyl butanoate]
Conditions | mass density [kg/m3] | refractive index
[1], 298.15 K | 873.94 | –
[2], Abbe refractometer | – | 1.388

Conditions | Normal boiling temperature [°C]
[1] | 121.02

CCOC(=O)CC [ethyl propanoate]
Conditions | mass density [kg/m3] | refractive index
[1], 298.15 K | 883.95 | –
[2], Abbe refractometer | – | 1.3791

Conditions | Normal boiling temperature [°C]
[1] | 98.76
